Here are results for eleven compounds from ChEMBL document CHEMBL1153224, “Fluorinated piperidine acetic acids as gamma-secretase modulators” (Bioorg Med Chem Lett, 2010).

The target in series [1] is Gamma-secretase. Description: Inhibition of gamma secretase in human SHSY5Y cells expressing wild-type APP assessed as inhibition of intracellular amyloid beta-42 by electrochemiluminescent assay. As to conditions: sh-sy5y; call rule not given here. It is filed as cell-based.
The target in series [2] is Gamma-secretase. Description: Inhibition of gamma secretase in human SHSY5Y cells expressing wild-type APP assessed as inhibition of intracellular amyloid beta-40 by electrochemiluminescent assay. The format is cell-based. As to conditions: sh-sy5y.
Series [3] is described as follows: Plasma clearance in rat at 1 mg/kg, iv and 2 mg/kg, po. It is filed as ADME, organism-based.
The nature of series [4]: Volume of distribution at steady state in rat at 1 mg/kg, iv and 2 mg/kg, po. It is filed as ADME, organism-based. As to conditions: in vivo, read-out: Vdss.
A short description of series [5]: Half life in rat at 1 mg/kg, iv and 2 mg/kg, po. It is filed as ADME, organism-based. As to conditions: in vivo.
Series [6] in a line: (§1) Oral bioavailability in rat at 2 mg/kg. The format is ADME, organism-based. As to conditions: in vivo.
The subject of series [7] is Brain. Description: Reduction in amyloid beta 42 level in APP-YAC transgenic mouse brain at 20 mg/kg, po after 7 hrs. Also on record: scale not given: the % may be the effect or the level left. The format is functional.
In series [8] the test system is Mus musculus. Description: (§2) Drug level in APP-YAC transgenic mouse brain at 10 mg/kg, po after 7 hrs. As to conditions: in vivo, 7 h. Also on record: dose 10 mg/kg, route oral. The format is ADME, organism-based.
Series [9] deals with Mus musculus. Description: (§3) Plasma concentration in APP-YAC transgenic mouse at 10 mg/kg, po after 7 hrs. The format is ADME, organism-based. Also on record: dose 10 mg/kg, route oral. As to conditions: in vivo, 7 h.
For series [10], the system named is Rattus norvegicus. Described as §1. The format is ADME, organism-based. As to conditions: in vivo.
The nature of series [11]: as §2. It is filed as ADME, organism-based. Also on record: dose 10 mg/kg, route oral. As to conditions: APP-YAC transgenic, brain, read-out: Drug uptake.
A short description of series [12]: as §3. As to conditions: APP-YAC transgenic, plasma. It is filed as ADME, organism-based. Also on record: dose 10 mg/kg, route oral.
The test system of series [13] is Brain. Description: Reduction in amyloid beta 42 level in rat brain after 7 hrs. The format is functional, tissue-based.
In the next series the test system is Plasma. Description: Reduction in amyloid beta 42 level in rat plasma after 7 hrs. The format is functional, cell-free.
Series [14] is filed under the species Rattus norvegicus. Description: Reduction in amyloid beta 42 level in rat after 7 hrs. It is filed as functional, organism-based.
Series [15] in a line: AUC (0 to 24 hrs) in rat at 250 mg/kg, po after 7 days. It is filed as ADME, organism-based. The arrangement: time < 24 hr, dose 250 mg/kg, route oral. As to conditions: plasma.
The test system of series [16] is Rattus norvegicus. Description: Toxicity in rat assessed as notch -related activity at 250 mg/kg, after 7 days. As to conditions: in vivo, 168 h. The format is organism-based. Also on record: dose 250 mg/kg.

Bounds are passed on as bounds.

In the case of `CC(C)(C)C#CC(CCC(F)(F)F)N1CCC(F)(F)[C@H](CC(=O)O)[C@H]1c1ccc(C(F)(F)F)cc1` (some centres not stated), the IC50 was 1500 nM at Gamma-secretase [1] and more than 10000 nM at Gamma-secretase [2].
For the compound `C[Si](C)(C)CC[C@H](CCC(F)(F)F)N1CC[C@@H](CC(=O)O)C(F)(F)[C@H]1c1ccc(C(F)(F)F)cc1`, the IC50 at Gamma-secretase [1] was 230 nM; at Gamma-secretase [2], more than 10000 nM. In series [3], this compound yielded a clearance of 9.1 mL/min/kg. Moreover, the Vd in series [4] is 5.1 L/kg. Further, in [5], the half-life was 6.4 h. In series [6], this compound returned a bioavailability of 20%. The Activity in the series on Brain [7] is listed as -64%. Further, in the series with Mus musculus [8], the Drug uptake entry is listed as “Not Active”. Besides, the Cp entry with Mus musculus [9] is listed as “Not Active”.
In the case of `CC(C)CCC(CCC(C)C)N1CCC(F)(F)[C@H](CC(=O)O)[C@H]1c1ccc(C(F)(F)F)cc1`, the IC50 at Gamma-secretase [1] is 880 nM; at Gamma-secretase [2] it was more than 10000 nM.
For the compound `CC(C)CC[C@H](c1ccc(C(F)(F)F)cc1)N1CC[C@@H](CC(=O)O)C(F)(F)[C@H]1c1ccc(C(F)(F)F)cc1`, the half-maximal inhibitory concentration (IC50) on Gamma-secretase [1] was 710 nM; at Gamma-secretase [2], more than 10000 nM.
For `CC(C)(C)CC[C@H](CCC(F)(F)F)N1CC[C@@H](CC(=O)O)C(F)(F)[C@H]1c1ccc(C(F)(F)F)cc1` the same measures were 490 nM and more than 10000 nM.
As to `CC(C)(C)CCC(CCC(F)(F)F)N1CCC(F)(F)[C@H](CC(=O)O)[C@H]1c1ccc(C(F)(F)F)cc1` (some centres not stated), the IC50 at Gamma-secretase [1] is 600 nM; at Gamma-secretase [2], more than 10000 nM; in the series listed under Rattus norvegicus [14] it was “Dose-dependent effect”. The clearance in [3] turned out to be 3.8 mL/min/kg. Moreover, the Vd in [4] was 1.9 L/kg. In [5], this compound showed a half-life of 5.1 h. This compound registered a F in the series with Rattus norvegicus [10] of 160%. The Activity in the series with Brain [7] is given as -84%; in the series with Rattus norvegicus [16], “Non-toxic”. Also, the concentration at 7 h worked out at 580 nM in series [11] and 1100 nM in [12]. Also, the results for the EC50 in the series on Brain [13] and in the series on Plasma were 1000 nM and 3700 nM, respectively. The ED50 in the series filed under Rattus norvegicus [14] (Rattus norvegicus, 7 h) amounted to 5 mg/kg. The compound also yielded an AUC at 24 h in series [15] of 2100 µM·h.
In the case of `CN1CCC(F)(F)[C@H](CC(=O)O)[C@H]1c1ccc(C(F)(F)F)cc1`, the half-maximal inhibitory concentration (IC50) at Gamma-secretase [1] and on Gamma-secretase [2] was more than 10000 nM throughout.
With `CC(C)(C)C#CC(CCC(F)(F)F)N1CCC(F)(F)[C@H](CC(=O)O)[C@H]1c1ccc(C(F)(F)F)cc1` (mixture of isomers), the IC50 at Gamma-secretase [1] is 800 nM; at Gamma-secretase [2], more than 10000 nM.
On to `CC(C)(C)CCC(CCC(F)(F)F)N1CCC(F)(F)[C@H](CC(=O)O)[C@H]1c1ccc(C(F)(F)F)cc1` (single isomer, unassigned; enantiomer 1), for which the concentration for half-maximal inhibition (IC50) at Gamma-secretase [1] is 1400 nM; at Gamma-secretase [2], more than 10000 nM.
For the compound `C[Si](C)(C)CCC(CCC(F)(F)F)N1CCC(F)(F)[C@H](CC(=O)O)[C@H]1c1ccc(C(F)(F)F)cc1` (single isomer, unassigned; enantiomer 2), the IC50 is 640 nM at Gamma-secretase [1] and more than 10000 nM at Gamma-secretase [2].
For the compound `CC(C)(C)C#CC(CCC(F)(F)F)N1CCC(F)(F)[C@H](CC(=O)O)[C@H]1c1ccc(C(F)(F)F)cc1` (single isomer, unassigned; enantiomer 2), the IC50 on Gamma-secretase [1] was 390 nM; at Gamma-secretase [2] it was more than 10000 nM.
